Measurements published in patent US10889584B2, “Bicyclic bis-heteroaryl derivatives as modulators of protein aggregation” (UCB Biopharma SRL, priority 2017, dated 2021).

Biological target: T1, α-synuclein peptide fragments (Peptide 4F, CTGFVKKDQLGK) (Homo sapiens, UniProt P37840)
T1 construct: purchased American Peptide
Assay: In-vitro fluorescence polarization assay with alpha-synuclein peptide fragment (4F)
Type: biochemical
Conditions: peptide 4F 100 nM, 120 min at room temperature, compound 33.3 to 0.015 microM, 50 mM HEPES pH 7.4, 50 mM NaCl, read-out: IC50 (inhibition of self-aggregation of α-synuclein peptide fragment 4F)
Procedure: Biological Example 1: In-Vitro Fluorescence Polarization Assay with Alpha-Synuclein Peptide Fragment (4F)
The fluorescence polarization assay tests the ability of compounds to inhibit the self-aggregation of α-synuclein peptide fragments. Peptides were incubated for 120 min at room temperature in the presence or absence of test compounds (compound concentrations were 33.3 to 0.015 microM). Samples were read on a Beckman Coulter DTX 880 plate reader in fluorescence polarization mode using excitation at 485 nm and emission at 520 nm. Data was analyzed using a four-parameter logistic fit (XLFit, IDBS Software). Peptide 4F (CTGFVKKDQLGK (SEQ ID NO: 1)) was prepared by American Peptide. Fresh peptide samples were reconstituted in purified water at 5 mM and diluted into 50 mM HEPES pH 7.4 with 50 mM NaCl to 100 nM final concentration. Solid compounds were dissolved in DMSO (10 mM), and then diluted serially in DMSO (300×) followed by dilution in buffer (1×) to provide solutions with a consistent final DMSO concentration of 0.33%.

Row | IC50 [µM] | Structure (SMILES)
1 | 2.4 | CCCCC(Cc1c[nH]c2ccccc12)NC(=O)c1cnc(N2Cc3cn[nH]c3C2)s1 (centres unmarked) [Example 1, 2-(4,6-dihydro-1H-pyrrolo[3,4-c]pyrazol-5-yl)-N-[1-(1H-indol-3-ylmethyl)pentyl]thiazole-5-carboxamide]
2 | 2.3 | CCCCC(Cc1c[nH]c2ccccc12)NC(=O)c1cnc(N2CCn3cnnc3C2)s1 (centres unmarked) [Example 2, 2-(6,8-dihydro-5H-[1,2,4]triazolo[4,3-a]pyrazin-7-yl)-N-[1-(1H-indol-3-ylmethyl)pentyl]thiazole-5-carboxamide]
3 | 2.2 | CCCCC(Cc1c[nH]c2ccccc12)NC(=O)c1cnc(N2CCc3[nH]ncc3C2)s1 (centres unmarked) [Example 3, N-[1-(1H-indol-3-ylmethyl)pentyl]-2-(1,4,6,7-tetrahydropyrazolo[4,3-c]pyridin-5-yl)thiazole-5-carboxamide]
4 | 1.4 | CCCCC(Cc1c[nH]c2ccccc12)NC(=O)c1cnc(N2CCn3nc(C)cc3C2)s1 (centres unmarked) [Example 4, N-[1-(1H-indol-3-ylmethyl)pentyl]-2-(2-methyl-6,7-dihydro-4H-pyrazolo[1,5-a]pyrazin-5-yl)thiazole-5-carboxamide]
5 | 2.1 | CCCCC(Cc1c[nH]c2ccccc12)NC(=O)c1cnc(N2Cc3cnn(C)c3C2)s1 (centres unmarked) [Example 5, N-[1-(1H-indol-3-ylmethyl)pentyl]-2-(1-methyl-4,6-dihydropyrrolo[3,4-c]pyrazol-5-yl)thiazole-5-carboxamide]
6 | 2.6 | CCCCC(Cc1c[nH]c2ccccc12)NC(=O)c1cnc(N2CCn3nncc3C2)s1 (centres unmarked) [Example 6, 2-(6,7-dihydro-4H-triazolo[1,5-a]pyrazin-5-yl)-N-[1-(1H-indol-3-ylmethyl)pentyl]thiazole-5-carboxamide]
7 | 2.2 | CCCCC(Cc1c[nH]c2ccccc12)NC(=O)c1cnc(N2CCn3ncnc3C2)s1 (centres unmarked) [Example 7, 2-(6,8-dihydro-5H-[1,2,4]triazolo[1,5-a]pyrazin-7-yl)-N-[1-(1H-indol-3-ylmethyl)pentyl]thiazole-5-carboxamide]
8 | 1.6 | CCCCC(Cc1c[nH]c2ccccc12)NC(=O)c1cnc(N2CCn3nc(C)nc3C2)s1 (centres unmarked) [Example 8, N-[1-(1H-indol-3-ylmethyl)pentyl]-2-(2-methyl-6,8-dihydro-5H-[1,2,4]triazolo[1,5-a]pyrazin-7-yl)thiazole-5-carboxamide]
9 | 1.5 | CCCCC(Cc1c[nH]c2ccccc12)NC(=O)c1cnc(N2CCn3cncc3C2)s1 (centres unmarked) [Example 9, 2-(6,8-dihydro-5H-imidazo[1,5-a]pyrazin-7-yl)-N-[1-(1H-indol-3-ylmethyl)pentyl]thiazole-5-carboxamide]
10 | 0.84 | CCCCC(Cc1c[nH]c2ccccc12)NC(=O)c1cnc(N2CCc3onc(C)c3C2)s1 (centres unmarked) [Example 10, N-[1-(1H-indol-3-ylmethyl)pentyl]-2-(3-methyl-6,7-dihydro-4H-isoxazolo[4,5-c]pyridin-5-yl)thiazole-5-carboxamide]
11 | 0.8 | CCCCC(Cc1c[nH]c2ccccc12)NC(=O)c1cnc(N2CCc3onc(C(F)(F)F)c3C2)s1 (centres unmarked) [Example 11, N-[1-(1H-indol-3-ylmethyl)pentyl]-2-[3-(trifluoromethyl)-6,7-dihydro-4H-isoxazolo[4,5-c]pyridin-5-yl]thiazole-5-carboxamide]
12 | 0.9 | CCCCC(Cc1c[nH]c2ccccc12)NC(=O)c1cnc(N2CCc3noc(C(F)(F)F)c3C2)s1 (centres unmarked) [Example 12, N-[1-(1H-indol-3-ylmethyl)pentyl]-2-[3-(trifluoromethyl)-6,7-dihydro-4H-isoxazolo[4,3-c]pyridin-5-yl]thiazole-5-carboxamide]
13 | 1.4 | CCCCC(Cc1c[nH]c2ccccc12)NC(=O)c1cnc(N2CCn3c(cc(C(F)(F)F)cc3=O)C2)s1 (centres unmarked) [Example 13, N-[1-(1H-indol-3-ylmethyl)pentyl]-2-[6-oxo-8-(trifluoromethyl)-3,4-dihydro-1H-pyrido[1,2-a]pyrazin-2-yl]thiazole-5-carboxamide]
14 | 1.7 | CCCCC(Cc1c[nH]c2ccccc12)NC(=O)c1cnc(N2CCn3c(C)nnc3C2)s1 (centres unmarked) [Example 14, N-[1-(1H-indol-3-ylmethyl)pentyl]-2-(3-methyl-6,8-dihydro-5H-[1,2,4]triazolo[4,3-a]pyrazin-7-yl)thiazole-5-carboxamide]
15 | 1.3 | CCCCC(Cc1c[nH]c2ccccc12)NC(=O)c1cnc(N2CCc3oncc3C2)s1 (centres unmarked) [Example 15, 2-(6,7-dihydro-4H-isoxazolo[4,5-c]pyridin-5-yl)-N-[1-(1H-indol-3-ylmethyl)pentyl]thiazole-5-carboxamide]
16 | 1 | CCCCC(Cc1c[nH]c2ccccc12)NC(=O)c1cnc(N2CCc3c(cnn3C)C2)s1 (centres unmarked) [Example 16, N-[1-(1H-indol-3-ylmethyl)pentyl]-2-(1-methyl-6,7-dihydro-4H-pyrazolo[4,3-c]pyridin-5-yl)thiazole-5-carboxamide]
17 | 1.6 | CCCCC(Cc1c[nH]c2ccccc12)NC(=O)c1cnc(N2CCn3ccnc3C2)s1 (centres unmarked) [Example 17, 2-(6,8-dihydro-5H-imidazo[1,2-a]pyrazin-7-yl)-N-[1-(1H-indol-3-ylmethyl)pentyl]thiazole-5-carboxamide]
18 | 1.2 | CCCCC(Cc1c[nH]c2ccccc12)NC(=O)c1cnc(N2CCn3c(nnc3C(F)(F)F)C2)s1 (centres unmarked) [Example 18, N-[1-(1H-indol-3-ylmethyl)pentyl]-2-[3-(trifluoromethyl)-6,8-dihydro-5H-[1,2,4]triazolo[4,3-a]pyrazin-7-yl]thiazole-5-carboxamide]
19 | 1.3 | CCCCC(Cc1c[nH]c2ccccc12)NC(=O)c1cnc(N2CCn3nccc3C2)s1 (centres unmarked) [Example 19, 2-(6,7-dihydro-4H-pyrazolo[1,5-a]pyrazin-5-yl)-N-[1-(1H-indol-3-ylmethyl)pentyl]thiazole-5-carboxamide]
20 | 1.2 | CCCCC(Cc1c[nH]c2ccccc12)NC(=O)c1cnc(N2CCc3nn(C)cc3C2)s1 (centres unmarked) [Example 20, N-[1-(1H-indol-3-ylmethyl)pentyl]-2-(2-methyl-6,7-dihydro-4H-pyrazolo[4,3-c]pyridin-5-yl)thiazole-5-carboxamide]
